Reference: ChEMBL document CHEMBL3124756, “Hepatitis C virus NS5A replication complex inhibitors. Part 6: Discovery of a novel and highly potent biarylimidazole chemotype with inhibitory activity toward genotypes 1a and 1b replicons” (J Med Chem, 2014)

System: Hepatitis C virus
Test: Antiviral activity against Hepatitis C virus genotype 2a J6 infected in human HuH7 cells by FRET assay
Type: functional, organism-based, Hepacivirus hominis
Details: subtype 2a J6, Huh-7

SMILES | EC50 [nM]
CN(C)[C@@H](C(=O)N1CCC[C@H]1c1ncc(-c2ccc(-c3ccc(-c4cnc([C@@H]5CCCN5C(=O)[C@@H](c5ccccc5)N(C)C)[nH]4)cc3)cc2)[nH]1)c1ccccc1 | 0.032
COC(=O)N[C@@H](C(=O)N1CCC[C@H]1c1ncc(-c2ccc(-c3ccc(-c4cnc([C@@H]5CCCN5C(=O)[C@H](NC(=O)OC)c5ccccc5)[nH]4)cc3)cc2)[nH]1)c1ccccc1 | 0.023

System: Hepatitis C virus
Test: Antiviral activity against Hepatitis C virus genotype 3a infected in human HuH7 cells by FRET assay
Type: functional, organism-based, Hepacivirus hominis
Details: Huh-7

SMILES | EC50 [nM]
CN(C)[C@@H](C(=O)N1CCC[C@H]1c1ncc(-c2ccc(-c3ccc(-c4cnc([C@@H]5CCCN5C(=O)[C@@H](c5ccccc5)N(C)C)[nH]4)cc3)cc2)[nH]1)c1ccccc1 | 0.015
COC(=O)N[C@@H](C(=O)N1CCC[C@H]1c1ncc(-c2ccc(-c3ccc(-c4cnc([C@@H]5CCCN5C(=O)[C@H](NC(=O)OC)c5ccccc5)[nH]4)cc3)cc2)[nH]1)c1ccccc1 | 0.004

System: Salmonella typhimurium
Test: Mutagenic activity in Salmonella typhimurium TA 100 at 1 to 1000 ug/well after 48 hrs by Ames test
Type: toxicity, organism-based
Details: salmonella enterica subsp. enterica serovar typhimurium

SMILES | Activity
O=C(Nc1ccc(/C=C/c2ccc(NC(=O)[C@@H]3CCCN3C(=O)Cc3ccccc3)cc2)cc1)[C@@H]1CCCN1C(=O)Cc1ccccc1 | Non-toxic

System: Hepatitis C virus
Test: Antiviral activity against Hepatitis C virus genotype 5a infected in human HuH7 cells by FRET assay
Type: functional, organism-based, Hepacivirus hominis
Details: Huh-7

SMILES | EC50 [nM]
CN(C)[C@@H](C(=O)N1CCC[C@H]1c1ncc(-c2ccc(-c3ccc(-c4cnc([C@@H]5CCCN5C(=O)[C@@H](c5ccccc5)N(C)C)[nH]4)cc3)cc2)[nH]1)c1ccccc1 | 0.032
COC(=O)N[C@@H](C(=O)N1CCC[C@H]1c1ncc(-c2ccc(-c3ccc(-c4cnc([C@@H]5CCCN5C(=O)[C@H](NC(=O)OC)c5ccccc5)[nH]4)cc3)cc2)[nH]1)c1ccccc1 | 0.014

System: not listed separately
Test: Cytotoxicity against human HuH7 cells infected with HCV genotype 1b after 72 hrs by Alamar blue assay
Type: cell-based, Huh-7
Details: not given

SMILES | CC50 at 72 h [nM]
CN(C)[C@@H](C(=O)N1CCC[C@H]1c1ncc(-c2ccc(-c3ccc(-c4cnc([C@@H]5CCCN5C(=O)[C@@H](c5ccccc5)N(C)C)[nH]4)cc3)cc2)[nH]1)c1ccccc1 | 5860
CN(C)[C@@H](C(=O)N1CCC[C@H]1c1nc2ccc(C#Cc3ccc4nc([C@@H]5CCCN5C(=O)[C@@H](c5ccccc5)N(C)C)oc4c3)cc2o1)c1ccccc1 | 2720
CN(C)C(C(=O)N1CCC[C@H]1C(=O)Nc1ccc(-c2ncc(-c3ccc4[nH]c([C@@H]5CCCN5C(=O)[C@@H](c5ccccc5)N(C)C)nc4c3)o2)cc1)c1ccccc1 (single isomer, unassigned) | > 10000
CN(C)[C@@H](C(=O)N1CCC[C@H]1C(=O)Nc1cccc(-c2cnc(-c3cccc(NC(=O)[C@@H]4CCCN4C(=O)[C@@H](c4ccccc4)N(C)C)c3)o2)c1)c1ccccc1 | 4730
COC(=O)N[C@@H](C(=O)N1CCC[C@H]1c1ncc(-c2ccc(-c3ccc(-c4cnc([C@@H]5CCCN5C(=O)[C@H](NC(=O)OC)c5ccccc5)[nH]4)cc3)cc2)[nH]1)c1ccccc1 | > 10000

System: not listed separately
Test: Plasma concentration in rat at 5 mg/kg, po after 0.17 hrs
Type: ADME, organism-based
Design: dose 5 mg/kg, route oral
Details: not given

SMILES | concentration at 0.17 h [nM]
CN(C)[C@@H](C(=O)N1CCC[C@H]1c1ncc(-c2ccc(-c3ccc(-c4cnc([C@@H]5CCCN5C(=O)[C@@H](c5ccccc5)N(C)C)[nH]4)cc3)cc2)[nH]1)c1ccccc1 | 20

System: Hepatitis C virus
Test: Antiviral activity against Hepatitis C virus genotype 4a infected in human HuH7 cells by FRET assay
Type: functional, organism-based, Hepacivirus hominis
Details: Huh-7

SMILES | EC50 [nM]
CN(C)[C@@H](C(=O)N1CCC[C@H]1c1ncc(-c2ccc(-c3ccc(-c4cnc([C@@H]5CCCN5C(=O)[C@@H](c5ccccc5)N(C)C)[nH]4)cc3)cc2)[nH]1)c1ccccc1 | 0.013
COC(=O)N[C@@H](C(=O)N1CCC[C@H]1c1ncc(-c2ccc(-c3ccc(-c4cnc([C@@H]5CCCN5C(=O)[C@H](NC(=O)OC)c5ccccc5)[nH]4)cc3)cc2)[nH]1)c1ccccc1 | 0.0057

System: Hepatitis C virus
Test: Antiviral activity against Hepatitis C virus genotype 1a infected in human HuH7 cells after 5 days by ELISA
Type: functional, organism-based, Hepacivirus hominis
Details: subtype 1a, Huh-7, 120 h

SMILES | EC50 [nM]
CN(C)[C@@H](C(=O)N1CCC[C@H]1c1ncc(-c2ccc(-c3ccc(-c4cnc([C@@H]5CCCN5C(=O)[C@@H](c5ccccc5)N(C)C)[nH]4)cc3)cc2)[nH]1)c1ccccc1 | 0.037
CN(C)[C@@H](C(=O)N1CCC[C@H]1c1nc2ccc(C#Cc3ccc4nc([C@@H]5CCCN5C(=O)[C@@H](c5ccccc5)N(C)C)oc4c3)cc2o1)c1ccccc1 | > 1000
CN(C)C(C(=O)N1CCC[C@H]1C(=O)Nc1ccc(-c2ncc(-c3ccc4[nH]c([C@@H]5CCCN5C(=O)[C@@H](c5ccccc5)N(C)C)nc4c3)o2)cc1)c1ccccc1 (single isomer, unassigned) | 251
COC(=O)N[C@@H](C(=O)N1CCC[C@H]1c1ncc(-c2ccc(-c3ccc(-c4cnc([C@@H]5CCCN5C(=O)[C@H](NC(=O)OC)c5ccccc5)[nH]4)cc3)cc2)[nH]1)c1ccccc1 | 0.028

System: Hepatitis C virus
Test: Antiviral activity against Hepatitis C virus genotype 1a infected in human HuH7 cells after 72 hrs by FRET assay
Type: functional, organism-based, Hepacivirus hominis
Details: subtype 1a, Huh-7, 72 h

SMILES | EC50 [nM]
CN(C)[C@@H](C(=O)N1CCC[C@H]1C(=O)Nc1cccc(-c2cnc(-c3cccc(NC(=O)[C@@H]4CCCN4C(=O)[C@@H](c4ccccc4)N(C)C)c3)o2)c1)c1ccccc1 | 738

System: not listed separately
Test: Metabolic stability in rat microsomes assessed as compound remaining after 10 mins
Type: ADME, microsome
Details: liver microsomes, read-out: Stability

SMILES | remaining at 10 min [%]
CN(C)[C@@H](C(=O)N1CCC[C@H]1c1ncc(-c2ccc(-c3ccc(-c4cnc([C@@H]5CCCN5C(=O)[C@@H](c5ccccc5)N(C)C)[nH]4)cc3)cc2)[nH]1)c1ccccc1 | 100
COC(=O)N[C@@H](C(=O)N1CCC[C@H]1c1ncc(-c2ccc(-c3ccc(-c4cnc([C@@H]5CCCN5C(=O)[C@H](NC(=O)OC)c5ccccc5)[nH]4)cc3)cc2)[nH]1)c1ccccc1 | 100

System: Hepatitis C virus
Test: Antiviral activity against Hepatitis C virus genotype 1b expressing […] resistant-mutant infected in human HuH7 cells after 72 hrs by FRET assay
Type: functional, organism-based, Hepacivirus hominis
Details: Huh-7, 72 h

SMILES | EC50 [nM]
CN(C)[C@@H](C(=O)N1CCC[C@H]1c1ncc(-c2ccc(-c3ccc(-c4cnc([C@@H]5CCCN5C(=O)[C@@H](c5ccccc5)N(C)C)[nH]4)cc3)cc2)[nH]1)c1ccccc1 | 233
CN(C)[C@@H](C(=O)N1CCC[C@H]1c1nc2ccc(C#Cc3ccc4nc([C@@H]5CCCN5C(=O)[C@@H](c5ccccc5)N(C)C)oc4c3)cc2o1)c1ccccc1 | > 1000
COC(=O)N[C@@H](C(=O)N1CCC[C@H]1c1ncc(-c2ccc(-c3ccc(-c4cnc([C@@H]5CCCN5C(=O)[C@H](NC(=O)OC)c5ccccc5)[nH]4)cc3)cc2)[nH]1)c1ccccc1 | 166

System: Bovine viral diarrhea virus 1
Test: Antiviral activity against Bovine viral diarrhea virus infected in human HuH7 cells by luciferase reporter gene assay
Type: functional, organism-based
Details: Bovine viral diarrhea virus isolates and strains, Huh-7

SMILES | EC50 [nM]
CN(C)[C@@H](C(=O)N1CCC[C@H]1c1ncc(-c2ccc(-c3ccc(-c4cnc([C@@H]5CCCN5C(=O)[C@@H](c5ccccc5)N(C)C)[nH]4)cc3)cc2)[nH]1)c1ccccc1 | 2350
CN(C)[C@@H](C(=O)N1CCC[C@H]1c1nc2ccc(C#Cc3ccc4nc([C@@H]5CCCN5C(=O)[C@@H](c5ccccc5)N(C)C)oc4c3)cc2o1)c1ccccc1 | 390
CN(C)C(C(=O)N1CCC[C@H]1C(=O)Nc1ccc(-c2ncc(-c3ccc4[nH]c([C@@H]5CCCN5C(=O)[C@@H](c5ccccc5)N(C)C)nc4c3)o2)cc1)c1ccccc1 (single isomer, unassigned) | > 370
CN(C)[C@@H](C(=O)N1CCC[C@H]1C(=O)Nc1cccc(-c2cnc(-c3cccc(NC(=O)[C@@H]4CCCN4C(=O)[C@@H](c4ccccc4)N(C)C)c3)o2)c1)c1ccccc1 | 1160
COC(=O)N[C@@H](C(=O)N1CCC[C@H]1c1ncc(-c2ccc(-c3ccc(-c4cnc([C@@H]5CCCN5C(=O)[C@H](NC(=O)OC)c5ccccc5)[nH]4)cc3)cc2)[nH]1)c1ccccc1 | 1460

System: Hepatitis C virus
Test: Antiviral activity against Hepatitis C virus genotype 3a YH infected in human HuH7 cells by FRET assay
Type: functional, organism-based, Hepacivirus hominis
Details: subtype 3a YH, Huh-7

SMILES | EC50 [nM]
CN(C)[C@@H](C(=O)N1CCC[C@H]1c1ncc(-c2ccc(-c3ccc(-c4cnc([C@@H]5CCCN5C(=O)[C@@H](c5ccccc5)N(C)C)[nH]4)cc3)cc2)[nH]1)c1ccccc1 | 3.8
COC(=O)N[C@@H](C(=O)N1CCC[C@H]1c1ncc(-c2ccc(-c3ccc(-c4cnc([C@@H]5CCCN5C(=O)[C@H](NC(=O)OC)c5ccccc5)[nH]4)cc3)cc2)[nH]1)c1ccccc1 | 4.4

System: Salmonella typhimurium
Test: Mutagenic activity in Salmonella typhimurium TA 100 at 1 to 1000 ug/well after 48 hrs by Ames test in presence of rat liver S9 fraction
Type: toxicity, organism-based
Details: salmonella enterica subsp. enterica serovar typhimurium, s9, 48 h

SMILES | Activity
O=C(Nc1ccc(/C=C/c2ccc(NC(=O)[C@@H]3CCCN3C(=O)Cc3ccccc3)cc2)cc1)[C@@H]1CCCN1C(=O)Cc1ccccc1 | Non-toxic

System: not listed separately
Test: Clearance in rat at 2 mg/kg, iv
Type: ADME, organism-based
Design: dose 2 mg/kg, route intravenous
Details: in vivo

SMILES | clearance [mL/min/kg]
CN(C)[C@@H](C(=O)N1CCC[C@H]1c1ncc(-c2ccc(-c3ccc(-c4cnc([C@@H]5CCCN5C(=O)[C@@H](c5ccccc5)N(C)C)[nH]4)cc3)cc2)[nH]1)c1ccccc1 | 17.4
COC(=O)N[C@@H](C(=O)N1CCC[C@H]1c1ncc(-c2ccc(-c3ccc(-c4cnc([C@@H]5CCCN5C(=O)[C@H](NC(=O)OC)c5ccccc5)[nH]4)cc3)cc2)[nH]1)c1ccccc1 | 11.1

System: not listed separately
Test: Permeability of the compound at pH 7.4 by PAMPA
Type: physicochemical
Details: read-out: permeability

SMILES | Papp [×10⁻⁶ cm/s]
CN(C)[C@@H](C(=O)N1CCC[C@H]1c1ncc(-c2ccc(-c3ccc(-c4cnc([C@@H]5CCCN5C(=O)[C@@H](c5ccccc5)N(C)C)[nH]4)cc3)cc2)[nH]1)c1ccccc1 | 0.7

System: Hepatitis C virus
Test: Antiviral activity against Hepatitis C virus genotype 1b infected in human HuH7 cells after 72 hrs by FRET assay
Type: functional, organism-based, Hepacivirus hominis
Details: Huh-7, 72 h

SMILES | EC50 [nM]
CN(C)[C@@H](C(=O)N1CCC[C@H]1c1ncc(-c2ccc(-c3ccc(-c4cnc([C@@H]5CCCN5C(=O)[C@@H](c5ccccc5)N(C)C)[nH]4)cc3)cc2)[nH]1)c1ccccc1 | 0.042
CN(C)[C@@H](C(=O)N1CCC[C@H]1c1nc2ccc(C#Cc3ccc4nc([C@@H]5CCCN5C(=O)[C@@H](c5ccccc5)N(C)C)oc4c3)cc2o1)c1ccccc1 | < 4.6
CN(C)C(C(=O)N1CCC[C@H]1C(=O)Nc1ccc(-c2ncc(-c3ccc4[nH]c([C@@H]5CCCN5C(=O)[C@@H](c5ccccc5)N(C)C)nc4c3)o2)cc1)c1ccccc1 (single isomer, unassigned) | 0.077
CN(C)[C@@H](C(=O)N1CCC[C@H]1C(=O)Nc1cccc(-c2cnc(-c3cccc(NC(=O)[C@@H]4CCCN4C(=O)[C@@H](c4ccccc4)N(C)C)c3)o2)c1)c1ccccc1 | 0.16
COC(=O)N[C@@H](C(=O)N1CCC[C@H]1c1ncc(-c2ccc(-c3ccc(-c4cnc([C@@H]5CCCN5C(=O)[C@H](NC(=O)OC)c5ccccc5)[nH]4)cc3)cc2)[nH]1)c1ccccc1 | 0.0067

System: not listed separately
Test: Metabolic stability in human liver microsomes assessed as compound remaining after 10 mins
Type: ADME
Details: read-out: Stability

SMILES | remaining at 10 min [%]
CN(C)[C@@H](C(=O)N1CCC[C@H]1c1ncc(-c2ccc(-c3ccc(-c4cnc([C@@H]5CCCN5C(=O)[C@@H](c5ccccc5)N(C)C)[nH]4)cc3)cc2)[nH]1)c1ccccc1 | 100
COC(=O)N[C@@H](C(=O)N1CCC[C@H]1c1ncc(-c2ccc(-c3ccc(-c4cnc([C@@H]5CCCN5C(=O)[C@H](NC(=O)OC)c5ccccc5)[nH]4)cc3)cc2)[nH]1)c1ccccc1 | 100
